Test results reported in PMC6274398, “Three Novel Triterpenoids from Taraxacum officinale Roots” (Molecules, 2016).
Where two headings read alike, the source gives them in different places.

Experiments:
[1] = test system: NO production in RAW 264.7 mouse macrophages stimulated by lipopolysaccharide (LPS); experiment: Inhibitory assay of NO production (Griess) in LPS-stimulated RAW264.7 cells; type: cell-based; conditions: for IC50 / activity at 1 µM / activity at 3 µM / activity at 10 µM / activity at 30 µM: Mus musculus; for IC50: read-out: IC50 (inhibition of NO production); for activity at 1 µM / activity at 3 µM / activity at 10 µM / activity at 30 µM: read-out: Produced NO %; for NO inhibitory activity (in words): 1–30 μM tested
Experimental: An inhibitory assay of NO production was examined in accordance with a previously reported method with minor modifications. Briefly, RAW264.7 cells (5 × 10^4 cells in 100 μL) were seeded on a 96-well microplate and incubated for 24 h. DMEM-containing test samples (100 μL total volume, final concentration of 30, 10, 3, or 1 μM) dissolved in DMSO (final concentration 0.2%) and LPS (final concentration of 5 μg/mL) was added. After being treated for 24 h, the supernatant of the culture medium was transferred to another 96-well microplate, and 50 μL of 0.15% N-(1-naphtyl)ethylenediamine in H2O and 1.5% sulfanilamide in 7.5% phosphoric acid were then added. After being incubated for 30 min, absorbance in each well was read at 570 nm using a microplate reader. The optical density of vehicle control cells was assumed to be 100%

RAW264.7 cells = experiment: RAW264.7 cell proliferation / cell viability (MTT); type: cell-based, mouse; conditions: for Cell Viavility %: 24 h, MTT, vs DMSO (100%), mean ± S.E., n=4
Experimental: RAW264.7 cell proliferation was examined in accordance with a previously reported method. Briefly, RAW264.7 cells (5 × 10^4 cells in 100 μL) were seeded on a 96-well microplate and incubated for 24 h. Dulbecco's modified eagle's medium (DMEM)-containing test samples (100 μL total volume, final concentration of 30, 10, 3, or 1 μM) dissolved in dimethyl sulfoxide (DMSO, final concentration 0.2%) was added. After being treated for 24 h, thiazolyl blue tetrazolium bromide (MTT) solution was added. After a 3-h incubation, 20% sodium dodecyl sulfate in 0.1 M HCl was added to dissolve the formazan produced in the cells. Absorbance in each well was read at 570 nm using a microplate reader. The optical density of vehicle control cells was assumed to be 100%.

[2] = RAW264.7, 1 μM, LPS 5 μg/mL, 24 h, vs DMSO (100%), mean ± S.E., n=4
[3] = RAW264.7, 3 μM, LPS 5 μg/mL, 24 h, vs DMSO (100%), mean ± S.E., n=4
[4] = RAW264.7, 10 μM, LPS 5 μg/mL, 24 h, vs DMSO (100%), mean ± S.E., n=4
[5] = RAW264.7, 30 μM, LPS 5 μg/mL, 24 h, vs DMSO (100%), mean ± S.E., n=4

Compound | IC50 ([1]; RAW264.7, 24 h) | activity at 1 µM ([1]; RAW264.7, 24 h) | activity at 3 µM ([1]; RAW264.7, 24 h) | activity at 10 µM ([1]; RAW264.7, 24 h) | activity at 30 µM ([1]; RAW264.7, 24 h) | Cell Viavility % (RAW264.7 cells; 1 μM) | Cell Viavility % (RAW264.7 cells; 3 μM) | Cell Viavility % (RAW264.7 cells; 10 μM) | Cell Viavility % (RAW264.7 cells; 30 μM) | melting point | NO inhibitory activity (in words) [1] | activity at 1 µM [1, 2] | activity at 3 µM [1, 3] | activity at 10 µM [1, 4] | activity at 30 µM [1, 5] | IC50 ([1]; LPS-stimulated RAW264.7, 24 h) | Cytotoxicity (in words) (RAW264.7 cells; at 1–30 μM) | Cytotoxicity at effective concentration (in words) (RAW264.7 cells; at 1–10 μM) | Cytotoxicity (in words) (RAW264.7 cells; at higher concentrations) | Cytotoxicity at effective concentration (in words) (RAW264.7 cells; at 1 and 3 μM)
CC(=O)O[C@H]1CC[C@]2(C)[C@H]3CC[C@@H]4C5=C(C(C)C)C(=O)C[C@]5(C)CC[C@@]4(C)[C@]3(C)CC[C@H]2C1(C)C [Compound 5, 21-oxolup-18-en-3β-yl acetate] | > 30 µM | 110 ± 5.2% | 106 ± 3.2% | 94.9 ± 4.3% | 92.7 ± 4.7% | (98.4 ± 3.1) % | (94.8 ± 3.9) % | (90.7 ± 1.8) % | (88.9 ± 2.3) % | – | – | – | – | – | – | – | – | – | – | –
CO[C@H]1C[C@]2(C)CC[C@]3(C)[C@H](CC[C@@H]4[C@@]5(C)CC[C@H](OC(C)=O)C(C)(C)[C@@H]5CC[C@]43C)[C@@]23O[C@@]13C(C)C [Compound 1, 18β,19β-epoxy-21β-methoxylupan-3β-yl acetate] | > 30 µM | 94.8 ± 1.2% | 101.4 ± 0.7% | 90.5 ± 2.4% | 95.7 ± 4.6% | (95.0 ± 0.7) % | (104.2 ± 1.3) % | (102.6 ± 0.7) % | (107.4 ± 2.0) % | – | – | – | – | – | – | – | – | – | – | –
CC(=O)O[C@H]1CC[C@]2(C)[C@H]3CC[C@@]4(C)[C@H]([C@H](C)CCC=C(C)C)CC[C@]4(C)C3=CC(=O)[C@H]2C1(C)C [Compound 3, 3β-acetoxyeupha-7,24-dien-6-one] | > 30 µM | 101 ± 2.6% | 93.7 ± 1.4% | 93.3 ± 1.6% | 93.1 ± 0.9% | (100.0 ± 1.4) % | (94.6 ± 8.2) % | (104.2 ± 0.7) % | (103.8 ± 1.0) % | 140 to 143 °C | – | – | – | – | – | – | – | – | – | –
CC(C)=CCC[C@@H](C)[C@@H]1CC[C@]2(C)C3=CC[C@H]4C(C)(C)C(=O)CC[C@]4(C)[C@H]3CC[C@@]12C [Compound 9, eupha-7,24-dien-3-one] | > 30 µM | 98.4 ± 3.9% | 100 ± 1.6% | 109 ± 2% | 108 ± 4.7% | (99.3 ± 0.2) % | (98.8 ± 0.2) % | (99.1 ± 0.4) % | (99.9 ± 0.6) % | – | – | – | – | – | – | – | – | – | – | –
CO[C@@H]1C=C2[C@@H]3CC(C)(C)CC[C@]3(C)CC[C@@]2(C)[C@]2(C)CC[C@H]3C(C)(C)C(=O)CC[C@]3(C)[C@@H]12 [Compound 8, 11α-methoxyolean-12-en-3-one] | – | – | – | – | – | (99.9 ± 0.1) % | (100.4 ± 0.1) % | (100.5 ± 0.2) % | (103.0 ± 1.6) % | – | exhibited NO inhibitory activities | 102.9 ± 0.7% | 105 ± 3.1% | 90.2 ± 7.1% | 64.1 ± 3.3% | > 30 µM | no cytotoxicity | – | – | –
CC(=O)O[C@H]1CC[C@]2(C)[C@H]3CC[C@@H]4[C@@]56O[C@]5(C(C)C)[C@@H](O)C[C@]6(C)CC[C@@]4(C)[C@]3(C)CC[C@H]2C1(C)C [Compound 4, 18β,19β-epoxy-21β-hydroxylupan-3β-yl acetate] | 16.9 µM | 83.6 ± 0.9% | 76.8 ± 2.5% | 66 ± 0.8% | 35.4 ± 2.2% | (98.4 ± 0.9) % | (97.9 ± 0.3) % | (92.7 ± 1.0) % | (49.5 ± 0.7) % | – | exhibited NO inhibitory activities | – | – | – | – | – | – | did not exhibit cytotoxicity | some cytotoxicity | –
CC(=O)O[C@H]1CC[C@]2(C)[C@H]3CC[C@@]4(C)[C@@H]5[C@@H](C)[C@H](C)CC[C@]5(C)CC[C@]4(C)C3=CC(=O)[C@H]2C1(C)C [Compound 2, 3β-acetoxybauer-7-en-6-one] | – | – | – | – | – | (100.0 ± 1.3) % | (102.2 ± 0.3) % | (105.1 ± 0.3) % | (105.7 ± 2.0) % | 110 to 112 °C | – | 95.6 ± 2.7% | 101 ± 2.6% | 86.5 ± 1.4% | 71.4 ± 1.8% | > 30 µM | – | – | – | –
C=C(C)C(=O)CC[C@@H](C)[C@@H]1CC[C@]2(C)C3=CC[C@H]4C(C)(C)[C@@H](OC(C)=O)CC[C@]4(C)[C@H]3CC[C@@]12C [Compound 10] | 18.4 µM | 93.8 ± 1.8% | 81.6 ± 3.7% | 67.5 ± 2.4% | 37 ± 1.8% | (108.3 ± 4.7) % | (100.4 ± 0.2) % | (100.2 ± 0.1) % | (2.6 ± 0.4) % | – | exhibited NO inhibitory activities | – | – | – | – | – | – | did not exhibit cytotoxicity | some cytotoxicity | –
CNC(=N)NCCC[C@H](N)C(=O)O [L-NMMA, N^G-monomethyl-L-arginine acetate, reference compound] | – | – | – | – | – | (101.5 ± 0.9) % | (101.9 ± 0.4) % | (98.5 ± 0.9) % | (109.4 ± 0.5) % | – | – | 93.3 ± 2.2% | 91.4 ± 0.8% | 68.9 ± 4.5% | 43.1 ± 1.1% | 23.9 µM | – | – | – | –
C=C(C)[C@@H]1CC[C@]2(CO)CC[C@]3(C)[C@H](CC[C@@H]4[C@@]5(C)CC[C@H](O)C(C)(C)[C@@H]5CC[C@]43C)[C@@H]12 [Compound 6, betulin] | 17 µM | 83.4 ± 1.5% | 75 ± 3.2% | 65.4 ± 0.5% | 36.3 ± 0.6% | (99.8 ± 0.1) % | (93.7 ± 1.1) % | (76.7 ± 0.7) % | (66.7 ± 1.2) % | – | exhibited NO inhibitory activities | – | – | – | – | – | – | – | some cytotoxicity | did not exhibit cytotoxicity
CC(C)C1=CC(=O)C(C)CCC2(C)C(CCC3C4(C)CCC(=O)C(C)(C)C4CCC32C)C1=O (stereo not drawn) [Compound 7, officinatrione] | – | – | – | – | – | (98.3 ± 2.6) % | (103.0 ± 2.4) % | (99.7 ± 3.8) % | (99.8 ± 3.0) % | – | exhibited NO inhibitory activities | 101 ± 1% | 101 ± 2.5% | 89.8 ± 1.1% | 66.8 ± 0.8% | > 30 µM | no cytotoxicity | – | – | –
